Target: recombinant human His-ATG7 enzyme (Homo sapiens (Human), UniProt O95352)
Experiment: ATG7 Enzyme Assay (HTRF/FRET, ATG3-GST and Flag-Gabarap)
Format: biochemical
Conditions: for inhibition at 0.111 µM: Concentration 0.111 μM; for inhibition at 0.111 µM / inhibition at 0.123 µM: read-out: Percent Inhibition; for inhibition at 0.123 µM: Concentration 0.123 μM
Procedure, shortened: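 HTRF read-out after 2 h at 24° C, using Eu-cryptate anti-Flag and XL-APC anti-GST antibodies in an EDTA stop buffer. The preceding 105 min, 24° C reaction (pH 7.5) held 10 μM ATP, 5 nM each ATG3-GST and Flag-Gabarap, and 0.15 nM human His-ATG7. Values are IC50 or percent inhibition at one concentration.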

Sequence of recombinant human His-ATG7 enzyme (O95352 whole entry): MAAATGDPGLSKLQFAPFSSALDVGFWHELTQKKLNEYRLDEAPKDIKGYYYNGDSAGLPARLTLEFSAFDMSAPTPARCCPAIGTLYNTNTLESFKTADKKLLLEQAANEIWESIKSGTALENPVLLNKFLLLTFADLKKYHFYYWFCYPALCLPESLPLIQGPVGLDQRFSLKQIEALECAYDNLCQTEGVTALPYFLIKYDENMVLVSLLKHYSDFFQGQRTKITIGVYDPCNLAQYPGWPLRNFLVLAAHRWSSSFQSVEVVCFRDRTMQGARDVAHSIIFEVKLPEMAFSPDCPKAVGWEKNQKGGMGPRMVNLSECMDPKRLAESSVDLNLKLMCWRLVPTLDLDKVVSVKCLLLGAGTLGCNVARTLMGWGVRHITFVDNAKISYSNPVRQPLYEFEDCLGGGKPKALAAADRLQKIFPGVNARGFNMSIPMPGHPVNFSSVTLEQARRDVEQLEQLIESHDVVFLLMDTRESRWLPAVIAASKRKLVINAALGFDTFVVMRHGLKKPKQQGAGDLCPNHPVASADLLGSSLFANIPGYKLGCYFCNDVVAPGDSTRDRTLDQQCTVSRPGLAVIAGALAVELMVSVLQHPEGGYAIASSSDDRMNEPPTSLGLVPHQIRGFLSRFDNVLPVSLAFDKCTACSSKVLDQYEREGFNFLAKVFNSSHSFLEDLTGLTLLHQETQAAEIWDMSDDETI

Row | SMILES | IC50 [nM] | inhibition at 0.111 µM [%] | inhibition at 0.123 µM [%]
1 | Nc1ncnc2c1c(SC(F)(F)F)nn2[C@@H]1O[C@H](COS(N)(=O)=O)[C@@H](O)[C@@H]1F [Compound I-142, [(2R,3R,4S,5R)-5-{4-amino-3-[(trifluoromethyl)sulfanyl]-1H-pyrazolo[3,4-d]pyrimidin-1-yl}-4-fluoro-3-hydroxytetrahydrofuran-2-yl]methyl sulfamate] | 50 to 100 | 57 | –
2 | C[S+]([O-])c1nn([C@@H]2O[C@H](COS(N)(=O)=O)[C@@H](O)[C@H]2O)c2ncnc(N)c12 (stereo partly drawn) [Compound I-87, {(2R,3S,4R,5R)-5-[4-amino-3-(methylsulfinyl)-1H-pyrazolo[3,4-d]pyrimidin-1-yl]-3,4-dihydroxytetrahydrofuran-2-yl}methyl Sulfamate] | 50 to 100 | – | 58
3 | Cc1ccnc(Sc2nn([C@@H]3O[C@H](COS(N)(=O)=O)[C@@H](O)[C@@H]3F)c3ncnc(N)c23)c1 [Compound I-114, [(2R,3R,4S,5R)-5-{4-amino-3-[(4-methylpyridin-2-yl)sulfanyl]-1H-pyrazolo[3,4-d]pyrimidin-1-yl}-4-fluoro-3-hydroxytetrahydrofuran-2-yl]methyl sulfamate] | < 20 | 90 | –
4 | Nc1ncnc2c1c(SCCO)nn2[C@@H]1O[C@H](COS(N)(=O)=O)[C@@H](O)[C@@H]1F [Compound I-151, [(2R,3R,4S,5R)-5-{4-amino-3-[(2-hydroxyethyl)sulfanyl]-1H-pyrazolo[3,4-d]pyrimidin-1-yl}-4-fluoro-3-hydroxytetrahydrofuran-2-yl]methyl Sulfamate] | – | 76 | –
5 | Nc1ncnc2c1c(Sc1ccc3c(c1)OCCO3)nn2[C@H]1C[C@H](O)[C@@H](COS(N)(=O)=O)O1 [Compound I-201, {(2R,3S,5R)-5-[4-amino-3-(2,3-dihydro-1,4-benzodioxin-6-ylsulfanyl)-1H-pyrazolo[3,4-d]pyrimidin-1-yl]-3-hydroxytetrahydrofuran-2-yl}methyl sulfamate] | 20 to 50 | 68 | –
6 | Nc1ncnc2c1c(SC1CCCCC1)nn2[C@@H]1O[C@H](COS(N)(=O)=O)[C@@H](O)[C@@H]1F [Compound I-122, {(2R,3R,4S,5R)-5-[4-amino-3-(cyclohexylsulfanyl)-1H-pyrazolo[3,4-d]pyrimidin-1-yl]-4-fluoro-3-hydroxytetrahydrofuran-2-yl}methyl sulfamate] | 20 to 50 | 80 | –
7 | CC1CC1CSc1nn([C@@H]2O[C@H](COS(N)(=O)=O)[C@@H](O)[C@@H]2F)c2ncnc(N)c12 (stereo partly shown) [Compound I-140] | 20 to 50 | 75 | –
8 | Cc1cc(Sc2nn([C@@H]3O[C@H](COS(N)(=O)=O)[C@@H](O)[C@@H]3F)c3ncnc(N)c23)c(C)o1 [Compound I-110, [(2R,3R,4S,5R)-5-{4-amino-3-[(2,5-dimethyl-3-furyl)sulfanyl]-1H-pyrazolo[3,4-d]pyrimidin-1-yl}-4-fluoro-3-hydroxytetrahydrofuran-2-yl]methyl sulfamate] | 50 to 100 | 56 | –
9 | Cc1cccc(Sc2nn([C@@H]3O[C@H](COS(N)(=O)=O)[C@@H](O)[C@@H]3F)c3ncnc(N)c23)c1 [Compound I-141, [(2R,3R,4S,5R)-5-{4-amino-3-[(3-methylphenyl)sulfanyl]-1H-pyrazolo[3,4-d]pyrimidin-1-yl}-4-fluoro-3-hydroxytetrahydrofuran-2-yl]methyl Sulfamate] | 20 to 50 | – | 76
10 | CC(C)(C)Sc1nn([C@@H]2O[C@H](COS(N)(=O)=O)[C@@H](O)[C@@H]2F)c2ncnc(N)c12 [Compound I-118, {(2R,3R,4S,5R)-5-[4-amino-3-(tert-butylsulfanyl)-1H-pyrazolo[3,4-d]pyrimidin-1-yl]-4-fluoro-3-hydroxytetrahydrofuran-2-yl}methyl sulfamate] | < 20 | 86 | –
11 | Cc1cccc(CSc2nn([C@@H]3O[C@H](COS(N)(=O)=O)[C@@H](O)[C@H]3O)c3ncnc(N)c23)c1 [Compound I-31, [(2R,3S,4R,5R)-5-{4-amino-3-[(3-methylbenzyl)sulfanyl]-1H-pyrazolo[3,4-d]pyrimidin-1-yl}-3,4-dihydroxytetrahydrofuran-2-yl]methyl sulfamate] | 20 to 50 | – | 85
12 | Cc1occc1Sc1nn([C@@H]2O[C@H](COS(N)(=O)=O)[C@@H](O)[C@@H]2F)c2ncnc(N)c12 [Compound I-100, [(2R,3R,4S,5R)-5-{4-amino-3-[(2-methyl-3-furyl)sulfanyl]-1H-pyrazolo[3,4-d]pyrimidin-1-yl}-4-fluoro-3-hydroxytetrahydrofuran-2-yl]methyl sulfamate] | 100 to 500 | 50 | –
13 | COc1nn([C@@H]2O[C@H](COS(N)(=O)=O)[C@@H](O)[C@@H]2F)c2ncnc(N)c12 [Compound I-105, [(2R,3R,4S,5R)-5-(4-amino-3-methoxy-1H-pyrazolo[3,4-d]pyrimidin-1-yl)-4-fluoro-3-hydroxytetrahydrofuran-2-yl]methyl Sulfamate] | 100 to 500 | – | 42
14 | Nc1ncnc2c1c(Sc1cccc(F)c1)nn2[C@H]1C[C@H](O)[C@@H](COS(N)(=O)=O)O1 [Compound I-206, [(2R,3S,5R)-5-{4-amino-3-[(3-fluorophenyl)sulfanyl]-1H-pyrazolo[3,4-d]pyrimidin-1-yl}-3-hydroxytetrahydrofuran-2-yl]methyl sulfamate] | 100 to 500 | 44 | –
15 | Nc1ncnc2c1c(Sc1nnc3ccccn13)nn2[C@@H]1O[C@H](COS(N)(=O)=O)[C@@H](O)[C@@H]1F [Compound I-156, {(2R,3R,4S,5R)-5-[4-amino-3-([1,2,4]triazolo[4,3-a]pyridin-3-ylsulfanyl)-1H-pyrazolo[3,4-d]pyrimidin-1-yl]-4-fluoro-3-hydroxytetrahydrofuran-2-yl}methyl sulfamate] | 100 to 500 | 30 | –
16 | Nc1ncnc2c1c(SCCc1ccccc1)nn2[C@@H]1O[C@H](COS(N)(=O)=O)[C@@H](O)[C@H]1O [Compound I-88, [(2R,3S,4R,5R)-5-{4-amino-3-[(2-phenylethyl)sulfanyl]-1H-pyrazolo[3,4-d]pyrimidin-1-yl}-3,4-dihydroxytetrahydrofuran-2-yl]methyl sulfamate] | 20 to 50 | – | 78
17 | Cc1ccccc1Sc1nn([C@@H]2O[C@H](COS(N)(=O)=O)[C@@H](O)[C@H]2O)c2ncnc(N)c12 [Compound I-74, [(2R,3S,4R,5R)-5-{4-amino-3-[(2-methylphenyl)sulfanyl]-1H-pyrazolo[3,4-d]pyrimidin-1-yl}-3,4-dihydroxytetrahydrofuran-2-yl]methyl sulfamate] | 50 to 100 | – | 61
18 | Nc1ncnc2c1c(Sc1ccc3c(c1)CCO3)nn2[C@H]1C[C@H](O)[C@@H](COS(N)(=O)=O)O1 [Compound I-186, {(2R,3S,5R)-5-[4-amino-3-(2,3-dihydro-1-benzofuran-5-ylsulfanyl)-1H-pyrazolo[3,4-d]pyrimidin-1-yl]-3-hydroxytetrahydrofuran-2-yl}methyl sulfamate] | 20 to 50 | 74 | –
19 | Nc1ncnc2c1c(-c1nccs1)nn2[C@@H]1O[C@H](COS(N)(=O)=O)[C@@H](O)[C@H]1O [Compound I-30, {(2R,3S,4R,5R)-5-[4-amino-3-(1,3-thiazol-2-yl)-1H-pyrazolo[3,4-d]pyrimidin-1-yl]-3,4-dihydroxytetrahydrofuran-2-yl}methyl sulfamate] | > 500 | – | 15

Source: US10865208B2, “ATG7 inhibitors and the uses thereof” (Millennium Pharmaceuticals, Inc., priority 2016, dated 2020)
